Laboratory results as given in patent publication US20230204572A1, “Engineered Biosensors in an Encapsulated and Deployable System (EBEADS) for Environmental Chemical Detection” (priority 2021, published 2023).

What was measured:
[1] = test system: mutant HbpR protein P4-A-8; settings: 50 μM PCB-3 vs 50 μM 2-HBP
Description: (§1) To generate biosensor systems that detect additional analytes, HbpR mutants were generated using a HbpR codon optimized library sequence (SEQ ID NO: 4) and a plasmid containing the same (SEQ ID NO: 8) and selection against different analytes.

HbpR [2] = assay: β-galactosidase (lacZ) reporter activity of sensing strain pBL_IMP_11 without amplification circuit in liquid culture; format: cell-based, Pseudomonas azelaica
Description: Cultures were grown overnight to saturation and then diluted to an OD600 of 0.2. Cultures were incubated at 30° C. with shaking until an OD600 of 0.7-1 before inducing cultures with 2-phenylphenol dissolved in 100% ethanol. Cultures were incubate for 3 hours or 1 mL samples were taken every hour. For experiments where 2-PP was removed after incubating for 3 hours, cultures were divided in two tubes and centrifuged. One half of the cultures were washed with 1×PBS to remove 2-phenylphenol and resuspended in fresh medium with antibiotics and without 2-phenylphenol. The other half was resuspended in their original medium without washing. Aliquots were taken every hour. […] Statistical significance of results was determined using a Student's two-tailed t-test. The limit of detection (LOD) was calculated using GraphPad Prism software and is defined as the blank plus three times the standard deviation of the blank.
In the bacterial sensor cells when exposed to 2-PP, the HbpR promoter is activated by 2-PP and HbpR protein is expressed from the transfected plasmids. […] The Limit of Detection (LOD) was calculated to be 0.863 μM for this sensor strain (FIG. 1i). […]
In order to test the response of the reporter over time, the sensor strains were treated with various amounts of 2-PP and reporter activity was measured every hour for five hours. […]

HbpR [3] = assay: AmilCP visual reporter of sensing strains on agar plates and in liquid culture; format: cell-based, Pseudomonas azelaica
Description: Strains containing AmilCP reporters were incubated overnight to saturation at 30° C. with shaking. Three μl of culture were pipetted onto 6 cm LB-agar plates containing 0.2 mM IPTG, 100 μg/mL carbenicillin, 50 μg/mL kanamycin, and 0 μM, 1 μM, or 10 μM of 2-phenylphenol. Images of the plates were taken at time points 0, 6, 12, 24, and 48 hours with a Nikon SMZ25 stereoscope.
After 12-24 hours on agar plates containing 10 μM 2-phenylphenol, the strains with amplification circuit produced enough AmilCP purple reporter to become just barely visible.
While the response time for the AmilCP reporter was slower than the 2 hour response time observed with the β-galactosidase reporter, use of the AmilCP reporter allowed for reporter visualization without additional equipment. When absorbance at 588 nm was used, addition of the amplification circuit in the AmilCP system allowed for detection of 2-PP at concentrations as low as 1 μM (FIG. 4B). The increase in reporter production through genetic amplification made it feasible for the living sensor to maintain a robust, visual reporter output when encapsulated.

HbpR [4] = assay: Sensor induction in hydrogel microbeads (eBEADS, amplification circuit strain, AmilCP); format: cell-based, Pseudomonas azelaica
Description: The encapsulated sensing strain's ability to detect low concentrations of 2-PP and produce a visible output signal were evaluated by time series of microscope images. Briefly, the positive control strain and 2-PP with amplification circuit strain were encapsulated in the PAA formulation as previously described above. The microbeads were placed on LB agar plates containing 0.2 mM IPTG, 100 μg/mL carbenicillin, and 50 μg/mL kanamycin supplemented with 0, 1 or 10 μM 2-phenylphenol and incubated at 30° C. Images of the sensing strain microbeads were taken at time points 0, 6, 12, 24, and 48 hours with a Nikon SMZ25 stereoscope.

aquatic organisms = settings: EPA reregistration decision; cited from earlier work
[5] = test system: mutant HbpR protein P6-F-8; settings: 50 μM PCB-1 vs 50 μM 2-PP
Description: as §1

[6] = test system: mutant HbpR protein P6-A-8; settings: 50 μM PCB-1 vs 50 μM 2-PP
Description: as §1

[7] = test system: mutant HbpR protein P6-B-9; settings: 50 μM PCB-1 vs 50 μM 2-PP
Description: as §1

[8] = agar plates, 1 μM and 10 μM 2-phenylphenol

In the case of Clc1ccc(-c2ccccc2)cc1 [PCB-3, polychlorinated biphenyl-3], the “lacZ reporter expression, mutant P4-A-8” value [1] is reported as “selective lacZ reporter expression”.
For Oc1ccccc1-c1ccccc1 [2-PP, 2-phenylphenol], the “Limit of Detection (LOD)” value (HbpR [2]; lacZ reporter, no amplification, three hours, blank plus three SD) was 0.863 µM, the “response time of β-galactosidase reporter” value (HbpR [2]; β-galactosidase reporter) was 2 h and the “lowest 2-PP concentration detected with AmilCP” value (HbpR [3]; absorbance at 588 nm, with amplification circuit, 24 hours) was no less than 1 µM. For the same compound, the “AmilCP colour after 48 hours, with amplification circuit” value (HbpR [3]; [8]) was “vibrant purple color”, the “AmilCP colour after 48 hours, without amplification circuit” value (HbpR [3]; [8]) was “faintly visible” and the “time until AmilCP purple reporter just barely visible” value (HbpR [3]; agar plates, 10 μM 2-phenylphenol, with amplification circuit) was 12 to 24 h. For the same compound, the “time to purple color response of encapsulated strain” value (HbpR [4]; 10 μM 2-PP, 30° C.) was no more than 24 h, the “response of eBEADS at less than 10 μM” value (HbpR [4]; after 48 hours, less than 10 μM 2PP) was “no response” and the “LC50 for some aquatic organisms” value (aquatic organisms) was no less than 0.32 mg/L.
In the case of Clc1ccccc1-c1ccccc1 [PCB-1, polychlorinated biphenyl-1], the “lacZ reporter expression, mutant P6-F-8” value [5] is reported as “selective lacZ reporter expression”, the “lacZ reporter expression, mutant P6-A-8” value [6] is reported as “selective lacZ reporter expression” and the “lacZ reporter expression, mutant P6-B-9” value [7] is reported as “selective lacZ reporter expression”.
